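48-hour exposure; five concentrations; linearly interpolated endpoints. Abbreviation: GI50, concentration required for 50% inhibition of growth.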 Calls of active or inactive are those of the source. No stated cut-off is given here; in the data, active = GI50 up to about 1.1 µM and inactive = higher.
How the values were obtained:
Assay in all cases: NCI anticancer screen, dose series, 48 h
OVCAR-4 = system: OVCAR-4
NCI-H23 = system: NCI-H23
NCI-H226 = system: NCI-H226
IGROV-1 = system: IGROV-1
DMS-114 = system: DMS-114
OVCAR-5 = system: OVCAR-5
OVCAR-8 = system: OVCAR-8
HT-29 = system: HT-29
A549 = system: A549
RXF 393 = system: RXF 393
UACC-62 = system: UACC-62
SK-MEL-5 = system: SK-MEL-5
Malme-3M = system: Malme-3M
SW-620 = system: SW-620
COLO 205 = system: COLO 205
LOX IMVI = system: LOX IMVI
786-0 = system: 786-0
NCI/ADR-RES = system: NCI/ADR-RES
HOP-92 = system: HOP-92
SK-OV-3 = system: SK-OV-3

Row | Compound | GI50 (OVCAR-4) | GI50 (NCI-H23) | GI50 (NCI-H226) | GI50 (IGROV-1) | GI50 (DMS-114) | GI50 (OVCAR-5) | GI50 (OVCAR-8) | GI50 (HT-29) | GI50 (A549) | GI50 (RXF 393) | GI50 (UACC-62) | GI50 (SK-MEL-5) | GI50 (Malme-3M) | GI50 (SW-620) | GI50 (COLO 205) | GI50 (LOX IMVI) | GI50 (786-0) | GI50 (NCI/ADR-RES) | GI50 (HOP-92) | GI50 (SK-OV-3)
1 | O=C1NC2(C=Cc3c(ccc4ccccc34)O2)Oc2ccccc21 (configuration not stated) | 19.1 µM (inactive) | 26.7 µM (inactive) | 26.5 µM (inactive) | 28.1 µM (inactive) | 13.2 µM (inactive) | 36.6 µM (inactive) | 26.9 µM (inactive) | 11.3 µM (inactive) | 18.7 µM (inactive) | 14.3 µM (inactive) | 19.2 µM (inactive) | 13.1 µM (inactive) | 28.1 µM (inactive) | 15 µM (inactive) | 14.8 µM (inactive) | 12.9 µM (inactive) | 19 µM (inactive) |  |  | 
2 | COc1ccc2cc(-c3ccc(OC)c(OC)c3)c(=O)oc2c1 | > 100 µM (inactive) | > 100 µM (inactive) | > 100 µM (inactive) | > 100 µM (inactive) |  | > 100 µM (inactive) | > 100 µM (inactive) | > 100 µM (inactive) | > 100 µM (inactive) | 21.4 µM (inactive) | > 100 µM (inactive) | > 100 µM (inactive) | > 100 µM (inactive) | > 100 µM (inactive) | > 100 µM (inactive) | > 100 µM (inactive) | 52 µM (inactive) | > 100 µM (inactive) | > 100 µM (inactive) | > 100 µM (inactive)
3 | C=CCC1(C)CCCN(Cc2ccccc2)C1=O (configuration not stated) | > 10 µM (inactive) | > 10 µM (inactive) | > 10 µM (inactive) | 0.863 µM (active) |  | > 10 µM (inactive) | > 10 µM (inactive) | > 10 µM (inactive) | > 10 µM (inactive) | > 10 µM (inactive) | > 10 µM (inactive) | 0.41 µM (active) | 0.0161 µM (active) | > 10 µM (inactive) | > 10 µM (inactive) | > 10 µM (inactive) | > 10 µM (inactive) | > 10 µM (inactive) | > 10 µM (inactive) | > 10 µM (inactive)
4 | C=C1C(=O)O[C@@H]2/C=C(C)/C=C\[C@@H]3O[C@@]3(C)C[C@@H](O)C12 (some centres not stated) | 16.3 µM (inactive) | 13.2 µM (inactive) | 9.1 µM (inactive) | 13 µM (inactive) |  | 33.2 µM (inactive) | 17.4 µM (inactive) | 10 µM (inactive) | 47.5 µM (inactive) | 18.7 µM (inactive) | 12.9 µM (inactive) | 14.6 µM (inactive) | 12.7 µM (inactive) | 4.02 µM (inactive) | 5.2 µM (inactive) | 7.1 µM (inactive) | 8.69 µM (inactive) | 4.51 µM (inactive) | 5.98 µM (inactive) | 54 µM (inactive)
5 | CCc1ccccc1NC(=O)C(=O)C(C(=O)c1ccc(OC)cc1)c1ccc(OC)cc1 (configuration not stated) | > 100 µM (inactive) | > 100 µM (inactive) | > 100 µM (inactive) | > 100 µM (inactive) | > 100 µM (inactive) | > 100 µM (inactive) | > 100 µM (inactive) | > 100 µM (inactive) | > 100 µM (inactive) |  | > 100 µM (inactive) | > 100 µM (inactive) | > 100 µM (inactive) | > 100 µM (inactive) | > 100 µM (inactive) | > 100 µM (inactive) | > 100 µM (inactive) |  |  | > 100 µM (inactive)
6 | CN(OC(=O)CC(=O)c1ccccc1)C(=O)Cc1ccccc1 | > 100 µM (inactive) | > 100 µM (inactive) | > 100 µM (inactive) | > 100 µM (inactive) | > 100 µM (inactive) | > 100 µM (inactive) | > 100 µM (inactive) | > 100 µM (inactive) | > 100 µM (inactive) |  | > 100 µM (inactive) | > 100 µM (inactive) | > 100 µM (inactive) | > 100 µM (inactive) | > 100 µM (inactive) | > 100 µM (inactive) | > 100 µM (inactive) |  |  | > 100 µM (inactive)
7 | CN1CCCC(C(=O)OCC(=O)C2(O)CCC3C4CCC5=CC(=O)CCC5(C)C4C(O)CC32C)C1 (configuration not stated) | 13.4 µM (inactive) | 20.5 µM (inactive) | 17.1 µM (inactive) | 23.4 µM (inactive) |  | 18.1 µM (inactive) | 15 µM (inactive) | 10.8 µM (inactive) | 16.4 µM (inactive) | 8.49 µM (inactive) | 18.1 µM (inactive) | 19.1 µM (inactive) | 17 µM (inactive) | 6.27 µM (inactive) | 18 µM (inactive) | 10.9 µM (inactive) | 4.2 µM (inactive) | 20 µM (inactive) | 50.9 µM (inactive) | 16.3 µM (inactive)

From ChEMBL document CHEMBL1201862, “PubChem BioAssay data set” (2004)
